The test system of one assay is fibrillin-1. Nature of the assay: Fibrillin-1 immunostaining in the papillary dermis of skin explants, semi-quantified by image analysis. The assay is classed as cell-based, human. Conditions: after infrared irradiation. The method, then:
(§1) Human skin explants of an average diameter of 12 mm (+1 mm) were prepared on an abdo-plasty coming from a person with a phototype II according to Fitz-patrick skin colour classification. The explants were kept in survival in BEM culture medium (BIO-EC's Explants Medium) at 37° C. in a humid, 5%-CO2 atmosphere.
(§2) Compositions A and B were applied at the rate of 2 μL per 1 cm^2 skin sample (~2 mg/cm^2) and spread using a small spatula on day 0, day 1, day 2, day 3 and day 6 (30 min before infrared irradiation exposure). […] The culture medium was half renewed (1 ml per well) on day 2, day 3 and day 6.
(§3) On day 6, the culture media of all the batches was replaced by HBSS (Hank's Balanced Saline Solution; 1 ml per explant). The batches IR, IR-C2, and IR-T were irradiated using a infrared lamp (Dr FISCHER 1000W, 235V 2500K; 760-3000 nm), for 1:24 h (720 J/cm^2; 140 mW/cm^2). The non-irradiated batches were kept in HBSS in the dark. […]
Nuclei have been post-stained with propidium iodide. The staining was assessed by microscopical observation and semi-quantified by image analysis. […]
Fibrillin-1 immunostaining was assessed by microscopical observation of skin sections with semi-quantification by image analysis using the software cellSens (Olympus).
(§4) Analysed zone: ROI including the papillary dermis.
(§5) Number of analysed images per batch: 9. […]

The next assay has as its system tropoelastin. Description: Tropoelastin immunostaining in the papillary dermis of skin explants, semi-quantified by image analysis. The assay is classed as cell-based, human. Particulars: when applying L-Carnosine. The procedure:
as §1, §2, §3
Nuclei have been post stained with propidium iodide. The staining was assessed by microscopical observation and semi-quantified by image analysis. […]
Tropoelastin immunostaining was assessed by microscopical observation of skin sections with semi-quantification by image analysis using the software cellSens (Olympus).
as §4, §5

Take `NCCC(=O)N[C@@H](Cc1cnc[nH]1)C(=O)O` [L-Carnosine]: the “amount of fibrillin-1 in the dermis” value in the assay with fibrillin-1 is reported as “strongly increase”. Moreover, the “amounts of elastin after infrared irradiation versus without infrared irradiation” value in the assay on tropoelastin is reported as “not significantly different”.

Values taken from patent US20260199212A1, “USE OF L-CARNOSINE AGAINST SOLAR ELASTOSIS” (SYMRISE AG, priority 2022, published 2026).
